The results in this text go back to patent publication US10717716B2, “1,3,4-oxadiazole derivative compounds as histone deacetylase 6 inhibitor, and the pharmaceutical composition comprising the same” (Chong Kun Dang Pharmaceutical Corp., priority 2015, dated 2020).

The target of the experiment is T1, human recombinant HDAC6 (Homo sapiens, UniProt Q9UBN7).
T1 construct: purchased Calbiochem 382180
T1 sequence (Q9UBN7 1-1215): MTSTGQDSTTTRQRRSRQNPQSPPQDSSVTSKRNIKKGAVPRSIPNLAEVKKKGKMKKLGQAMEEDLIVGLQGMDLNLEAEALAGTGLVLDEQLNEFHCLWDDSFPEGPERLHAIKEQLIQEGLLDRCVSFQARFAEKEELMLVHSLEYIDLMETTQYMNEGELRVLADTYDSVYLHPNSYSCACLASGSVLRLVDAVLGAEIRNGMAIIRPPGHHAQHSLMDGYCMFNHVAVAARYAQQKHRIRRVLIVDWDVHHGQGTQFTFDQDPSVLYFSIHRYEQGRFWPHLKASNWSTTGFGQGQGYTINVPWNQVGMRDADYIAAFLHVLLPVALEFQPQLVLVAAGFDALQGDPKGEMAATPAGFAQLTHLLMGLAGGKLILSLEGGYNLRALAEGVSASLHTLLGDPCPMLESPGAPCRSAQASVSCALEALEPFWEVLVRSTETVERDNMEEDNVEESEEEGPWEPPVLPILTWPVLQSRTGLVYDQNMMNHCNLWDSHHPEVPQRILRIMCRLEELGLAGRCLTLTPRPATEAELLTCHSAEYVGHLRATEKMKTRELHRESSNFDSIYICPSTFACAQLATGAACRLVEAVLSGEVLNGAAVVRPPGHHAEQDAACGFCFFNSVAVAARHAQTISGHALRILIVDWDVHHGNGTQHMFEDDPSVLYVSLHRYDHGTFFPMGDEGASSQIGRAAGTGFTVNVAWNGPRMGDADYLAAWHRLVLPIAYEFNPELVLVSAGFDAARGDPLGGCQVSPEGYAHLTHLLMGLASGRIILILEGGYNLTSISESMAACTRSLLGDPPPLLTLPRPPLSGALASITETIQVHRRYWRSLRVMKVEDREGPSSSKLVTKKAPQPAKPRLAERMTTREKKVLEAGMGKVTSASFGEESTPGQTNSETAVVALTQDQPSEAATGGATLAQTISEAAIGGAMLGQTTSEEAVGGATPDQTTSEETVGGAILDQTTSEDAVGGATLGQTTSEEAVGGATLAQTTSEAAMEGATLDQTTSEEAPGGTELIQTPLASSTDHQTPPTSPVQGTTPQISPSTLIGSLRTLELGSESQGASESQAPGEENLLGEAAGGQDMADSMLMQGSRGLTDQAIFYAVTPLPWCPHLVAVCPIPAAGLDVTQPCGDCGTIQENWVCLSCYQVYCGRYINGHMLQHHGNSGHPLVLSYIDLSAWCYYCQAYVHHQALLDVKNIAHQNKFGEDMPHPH
Briefly: HDAC6 enzyme activity inhibition assay (HDAC Fluorimetric Drug Discovery Kit). The experiment is classed as biochemical. The following applies: for HDAC6 selectivity (fold): HDAC6 over HDAC1; for IC50: human recombinant HDAC6, same protocol as HDAC1, read-out: HDAC6. Put shortly:
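Fluorimetric deacetylase assay: 5-fold serial compound dilutions, 0.3 μg recombinant human enzyme (HDAC1 or HDAC6, same protocol), 10 μM Fluor de Lys-SIRT1 substrate, 60 min at 30 °C. Signal developed 30 min, measured at 360/460 nm; IC50 values derived.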

Molecules are shown by their SMILES.

With `O=C(N1CCN(C2COC2)CC1)N(Cc1ccc(-c2nnc(C(F)F)o2)cc1)c1cccc(Cl)c1` [Compound 21942, N-(3-Chlorophenyl)-N-(4-(5-(difluoromethyl)-1,3,4-oxadiazol-2-yl)benzyl)-4-(oxetan-3-yl)piperazine-1-carboxamide], the “HDAC6 selectivity (fold)” value worked out at 160 fold and the IC50 was 62 nM.

Regarding `O=C(N1CCN(C2COC2)CC1)N(Cc1ccc(-c2nnc(C(F)F)o2)cn1)c1cccc(Cl)c1` [Compound 21944, N-(3-Chlorophenyl)-N-((5-(5-(difluoromethyl)-1,3,4-oxadiazol-2-yl)pyridin-2-yl)methyl)-4-(oxetan-3-yl)piperazine-1-carboxamide], the “HDAC6 selectivity (fold)” value stood at 201 fold and the IC50 turned out to be 50 nM.

Turning to `O=C(N1CCN(C2COC2)CC1)N(Cc1ccc(-c2nnc(C(F)F)o2)cc1)c1ccc(Cl)cc1` [Compound 21945, N-(4-Chlorophenyl)-N-(4-(5-(difluoromethyl)-1,3,4-oxadiazol-2-yl)benzyl)-4-(oxetan-3-yl)piperazine-1-carboxamide], the “HDAC6 selectivity (fold)” value was determined as 52 fold and the IC50 was 193 nM.

For the compound `O=C(N1CCN(C2COC2)CC1)N(Cc1ccc(-c2nnc(C(F)F)o2)cc1F)c1ccc(Cl)cc1` [Compound 21946, N-(4-Chlorophenyl)-N-(4-(5-(difluoromethyl)-1,3,4-oxadiazol-2-yl)-2-fluorobenzyl)-4-(oxetan-3-yl)piperazine-1-carboxamide], the “HDAC6 selectivity (fold)” value worked out at 81 fold and the IC50 amounted to 123 nM.

As for `O=C(N1CCN(C2COC2)CC1)N(Cc1ccc(-c2nnc(C(F)F)o2)cn1)c1ccc(Cl)cc1` [Compound 21947, N-(4-Chlorophenyl)-N-((5-(5-(difluoromethyl)-1,3,4-oxadiazol-2-yl)pyridin-2-yl)methyl)-4-(oxetan-3-yl)piperazine-1-carboxamide], the “HDAC6 selectivity (fold)” value was found to be 112 fold and the IC50 was 90 nM.

`COc1cccc(N(Cc2ccc(-c3nnc(C(F)F)o3)cn2)C(=O)N2CCN(C3COC3)CC2)c1` [Compound 21950, N-((5-(5-(Difluoromethyl)-1,3,4-oxadiazol-2-yl)pyridin-2-yl)methyl)-N-(3-methoxyphenyl)-4-(oxetan-3-yl)piperazine-1-carboxamide]: the “HDAC6 selectivity (fold)” value was 64 fold and the IC50 came to 157 nM.

Turning to `COc1ccc(N(Cc2ccc(-c3nnc(C(F)F)o3)cc2)C(=O)N2CCN(C3COC3)CC2)cc1` [Compound 21951, N-(4-(5-(Difluoromethyl)-1,3,4-oxadiazol-2-yl)benzyl)-N-(4-methoxyphenyl)-4-(oxetan-3-yl)piperazine-1-carboxamide], the “HDAC6 selectivity (fold)” value is recorded as 26 fold and the IC50 turned out to be 391 nM.

As to `COc1ccc(N(Cc2ccc(-c3nnc(C(F)F)o3)cc2F)C(=O)N2CCN(C3COC3)CC2)cc1` [Compound 21952, N-(4-(5-(Difluoromethyl)-1,3,4-oxadiazol-2-yl)-2-fluorobenzyl)-N-(4-methoxyphenyl)-4-(oxetan-3-yl)piperazine-1-carboxamide], the “HDAC6 selectivity (fold)” value is given as 58 fold and the IC50 was 172 nM.

On to `COc1ccc(N(Cc2ccc(-c3nnc(C(F)F)o3)cn2)C(=O)N2CCN(C3COC3)CC2)cc1` [Compound 21953, N-((5-(5-(Difluoromethyl)-1,3,4-oxadiazol-2-yl)pyridin-2-yl)methyl)-N-(4-methoxyphenyl)-4-(oxetan-3-yl)piperazine-1-carboxamide], for which the “HDAC6 selectivity (fold)” value stood at 62 fold and the IC50 was determined as 160 nM.

As to `O=C(N1CCN(C2COC2)CC1)N(Cc1ccc(-c2nnc(C(F)F)o2)cc1F)c1ccccc1` [Compound 21955, N-(4-(5-(Difluoromethyl)-1,3,4-oxadiazol-2-yl)-2-fluorobenzyl)-4-(oxetan-3-yl)-N-phenylpiperazine-1-carboxamide], the “HDAC6 selectivity (fold)” value came to 113 fold and the IC50 turned out to be 89 nM.

As to `O=C(NCCN1CCCC1)N(Cc1ccc(-c2nnc(C(F)F)o2)cc1F)c1ccccc1` [Compound 21956, 1-(4-(5-(Difluoromethyl)-1,3,4-oxadiazol-2-yl)-2-fluorobenzyl)-1-phenyl-3-(2-(pyrrolidin-1-yl)ethyl)urea], the “HDAC6 selectivity (fold)” value came out at 60 fold and the IC50 was found to be 167 nM.

Take `O=C(NCCN1CCCCC1)N(Cc1ccc(-c2nnc(C(F)F)o2)cc1F)c1ccccc1` [Compound 21957, 1-(4-(5-(Difluoromethyl)-1,3,4-oxadiazol-2-yl)-2-fluorobenzyl)-1-phenyl-3-(2-(piperidin-1-yl)ethyl)urea]: the “HDAC6 selectivity (fold)” value was 116 fold and the IC50 was determined as 86 nM.

`CN1CCN(CCNC(=O)N(Cc2ccc(-c3nnc(C(F)F)o3)cc2F)c2ccccc2)CC1` [Compound 21958, 1-(4-(5-(Difluoromethyl)-1,3,4-oxadiazol-2-yl)-2-fluorobenzyl)-3-(2-(4-methylpiperazin-1-yl)ethyl)-1-phenylurea]: the “HDAC6 selectivity (fold)” value is 115 fold and the IC50 is 87 nM.

With `CN1CCC(c2ccc(N(Cc3ccc(-c4nnc(C(F)F)o4)cc3F)C(=O)N3CCS(=O)(=O)CC3)cc2)CC1` [Compound 21970, N-(4-(5-(difluoromethyl)-1,3,4-oxadiazol-2-yl)-2-fluorobenzyl)-N-(4-(1-methylpiperidin-4-yl)phenyl)thiomorpholine-4-carboxamide 1,1-dioxide], the “HDAC6 selectivity (fold)” value turned out to be 6 fold and the IC50 is 1550 nM.

As to `CCN1CCN(CCOc2ccc(N(Cc3ccc(-c4nnc(C(F)F)o4)cc3F)C(=O)N3CCS(=O)(=O)CC3)cc2)CC1` [Compound 21971, N-(4-(5-(difluoromethyl)-1,3,4-oxadiazol-2-yl)-2-fluorobenzyl)-N-(4-(2-(4-ethylpiperazin-1-yl)ethoxy)phenyl)thiomorpholine-4-carboxamide 1,1-dioxide], the “HDAC6 selectivity (fold)” value stood at 59 fold and the IC50 is 169 nM.

`CCN1CCN(CCCOc2ccc(N(Cc3ccc(-c4nnc(C(F)F)o4)cc3F)C(=O)N3CCS(=O)(=O)CC3)cc2)CC1` [Compound 21972, N-(4-(5-(difluoromethyl)-1,3,4-oxadiazol-2-yl)-2-fluorobenzyl)-N-(4-(3-(4-ethylpiperazin-1-yl)propoxy)phenyl)thiomorpholine-4-carboxamide 1,1-dioxide]: the “HDAC6 selectivity (fold)” value was 38 fold and the IC50 was determined as 266 nM.

As for `CCN1CCN(CCCCOc2ccc(N(Cc3ccc(-c4nnc(C(F)F)o4)cc3F)C(=O)N3CCS(=O)(=O)CC3)cc2)CC1` [Compound 21973, N-(4-(5-(difluoromethyl)-1,3,4-oxadiazol-2-yl)-2-fluorobenzyl)-N-(4-(4-(4-ethylpiperazin-1-yl)butoxy)phenyl)thiomorpholine-4-carboxamide 1,1-dioxide], the “HDAC6 selectivity (fold)” value stood at 39 fold and the IC50 was 256 nM.

As for `Cc1nnc(N(Cc2ccc(-c3nnc(C(F)F)o3)cc2F)C(=O)N2CCS(=O)(=O)CC2)s1` [Compound 21979, N-(4-(5-(difluoromethyl)-1,3,4-oxadiazol-2-yl)-2-fluorobenzyl)-N-(5-methyl-1,3,4-thiadiazol-2-yl)thiomorpholine-4-carboxamide 1,1-dioxide], the “HDAC6 selectivity (fold)” value turned out to be 15 fold and the IC50 was found to be 669 nM.

Turning to `Cc1nnc(N(Cc2ccc(-c3nnc(C(F)F)o3)cc2F)C(=O)N2CCOCC2)s1` [Compound 21980, N-(4-(5-(difluoromethyl)-1,3,4-oxadiazol-2-yl)-2-fluorobenzyl)-N-(5-methyl-1,3,4-thiadiazol-2-yl)morpholine-4-carboxamide], the “HDAC6 selectivity (fold)” value worked out at 10 fold and the IC50 turned out to be 1030 nM.

With `O=C(N1CCOCC1)N(Cc1ccc(-c2nnc(C(F)F)o2)cc1F)c1nncs1` [Compound 21981, N-(4-(5-(difluoromethyl)-1,3,4-oxadiazol-2-yl)-2-fluorobenzyl)-N-(1,3,4-thiadiazol-2-yl) morpholine-4-carboxamide], the “HDAC6 selectivity (fold)” value is listed as 13 fold and the IC50 was determined as 758 nM.
